Measured values from US20160082071A1, “METHODS OF TREATING MYELOID LEUKEMIA” (BIOKINE THERAPEUTICS LTD., priority 2013, published 2016).
Like-named read-outs stand apart in the source and are kept apart here.

Experiments:
[1] = test system: Normal C57BL/6 female mice; details: mouse, in vivo
Description: (§1) Lyophilized 4F-benzoyl-TN14003 was manufactured by MSD N.V. The compound was dissolved with water for injection (WFI) at a final stock concentration of 25 mg/ml and stored at −20° C. until use. Before injection to the mice, 4F-benzoyl-TN14003 was thawed and diluted with PBS to final concentration of 5 mg/ml. Actual dosing solutions were prepared by diluting the 5 mg/ml stock solution (total dose including salt) in PBS just before the injection. 4F-benzoyl-TN14003 was administered at a constant dose volume of 200 μL.
(§2) Cytarabine (Cytosine arabinoside; ARA-C) was purchased from Hadassah cytotoxica pharmacy (Israel). ARA-C was provided from Hadassah cytotoxica pharmacy at concentration of 100 mg/ml. Actual dose solution (200 mg/Kg) was prepared by diluting the 100 mg/ml stock solution in PBS.
(§3) Normal C57BL/6 female mice, 9-10 week old, about 20 gram in weight, were used. The animals were kept in groups of a maximum of 10 animals in polysulphone cages (425×266×185 mm), fitted with solid bottoms and filled with wood shavings as bedding material. The animals were provided ad libitum a commercial rodent diet (Harlan Teklad™ Ra/Mouse Diet) and allowed free access to autoclaved water, supplied to each cage via polysulphone bottles with stainless steel sipper-tubes. From the first day of ARA-C dosing wet food was placed at the bottom of the cage. Ten animals were randomly allocated per treatment group.
(§4) The treatments groups were as followed (10 animals per treatment group): • Group A: untreated control. • Group B: animals administered with 4FB-TN14003 at a dose of 2.4, 4.8, 9.6 or 12 mg/Kg daily from day 1 to day 7. • Group C: animals administered with ARA-C at a dose of 200 mg/Kg daily from day 3 to 7. • Group D: animals administered with 4FB-TN14003 as in group B (at a dose of 2.4, 4.8, 9.6 or 12 mg/Kg daily from day 1 to day 7) and also with ARA-C as in group C (at a dose of 200 mg/Kg daily from day 3 to 7).
(§5) 4FB-TN14003 was injected SC at a constant dose volume of 200 μL/mouse (based on the latest determined body weight-average of 20 gr), once daily for 7 consecutive days (days 1-7). Control mice were injected with the vehicle (PBS) only under the same regimen.
(§6) ARA-C was diluted in PBS and injected SC at a constant dose of 200 mg/kg and at constant volume of 200 μL/mouse, once daily for 5 consecutive days (days 3-7). In the combination groups (groups 7-10) ARA-C was injected 4 hours following 4FB-TN14003 injection.
(§7) Blood samples were collected on day 12 of the experiment. The mice in each group were subjected to terminal bleeding from the orbital sinus. Blood samples (ca. 400-500 μl) were dispensed into special serum gel separation tubes (BD Microgard™) centrifuged at 13,000 rpm for 8 minutes at RT and saved the supernatant sera. Sera samples (at least 220 μl) were kept at 2-8° C. to complete blood counts (CBC).

[2] = test system: malignant cells of hematopoietic origin including AML; details: cited from earlier work
[3] = test system: human AML xenografts; details: subcutaneous injections; Beider et al., Exp. Hematol. 2011; cited from earlier work
[4] = test system: Normal C57BL/6 female mice; test: Toxicity assay: complete blood counts in mice treated with 4F-benzoyl-TN14003, ARA-C or both
Description: as §1, §2, §3, §4, §5, §6, §7

Row | Compound | hematocrit [1] | hemoglobin (HGB) [1] | lymphocyte Abs [1] | platelets [1] | red blood-cells (RBC) [1] | cytotoxicity toward malignant cells of hematopoietic origin including AML [2] | growth of human AML xenografts [3] | levels of platelets ([4]; ARA-C alone versus ARA-C in combination with 4F-benzoyl-TN14003, FIG. 5) | levels of neutrophil Abs ([4]; ARA-C alone versus ARA-C in combination with 4F-benzoyl-TN14003, FIG. 7) | white blood-cells (WBC) ([4]; compared with untreated control, blood collected day 12 (five days after treatment), ARA-C 200 mg/Kg SC days 3-7, 4F-benzoyl-TN14003 2.4, 4.8, 9.6 or 12 mg/Kg SC days 1-7, FIG. 1) | red blood-cells (RBC) ([4]; compared with untreated control, blood collected day 12, FIG. 2) | hematocrit ([4]; compared with untreated control, blood collected day 12, FIG. 3) | hemoglobin (HGB) ([4]; compared with untreated control, blood collected day 12, FIG. 4) | platelets ([4]; compared with untreated control, blood collected day 12, FIG. 5) | lymphocyte Abs ([4]; compared with untreated control, blood collected day 12, FIG. 6) | neutrophil Abs ([4]; compared with untreated control, blood collected day 12, FIG. 7)
1 | 4F-benzoyl-Arg-Arg-Nal-Cys-Tyr-Cit-Lys-DLys-Pro-Tyr-Arg-Cit-Cys-Arg-NH2 [4F-benzoyl-TN14003] | did not cause a reduction | did not cause a reduction | did not cause a reduction | did not cause a reduction | did not cause a reduction | CXCR4-dependent preferential cytotoxicity | significantly reduced |  |  |  |  |  |  |  |  | 
2 | Nc1ccn([C@@H]2O[C@H](CO)[C@@H](O)[C@@H]2O)c(=O)n1 [ARA-C, Cytarabine] |  |  |  |  |  |  |  | equally reduced levels | equally reduced levels | drastic reduction | drastic reduction | drastic reduction | drastic reduction | drastic reduction | drastic reduction | drastic reduction
